Measurements taken from US20080292736A1, “Bioavailability enhancing activity of carum carvi extracts and fractions thereof” (COUNCIL OF SCIENTIFIC AND INDUSTRIAL RESEARCH, priority 2001, published 2008).

Assay: Enhancement of bioavailability of drugs given to rats with bioenhancers (plasma drug level by HPLC)
Details: for % Enhancement in bioavailability, BE from Carum carvi: drug with Carum carvi bioenhancer (aqueous or 50% alcoholic extract 30 mg/kg or Fraction No. 1 15 mg/kg), drug dose mg/kg; for % Enhancement in bioavailability, Carum carvi + Zingiber officinale: drug with Carum carvi bioenhancer and Zingiber officinale 35 mg/kg; for % Enhancement in bioavailability, Carum carvi + Zingiber officinale / % Enhancement in bioavailability, Carum carvi + Piperine / % Enhancement in bioavailability, BE from Zingiber officinale / % Enhancement in bioavailability, Piperine as BE: drug dose as in row; for % Enhancement in bioavailability, Carum carvi + Piperine: drug with Carum carvi bioenhancer and piperine 8 mg/kg; for % Enhancement in bioavailability, BE from Zingiber officinale: drug with Zingiber officinale 50% alcoholic extract of fresh ginger 35 mg/kg; for % Enhancement in bioavailability, Piperine as BE: drug with piperine 8 mg/kg; for % Enhancement in bioavailability, Carum carvi (Cc) Frac 1.: nutraceutical with Carum carvi Fraction No. 1 15 mg/kg; for % Enhancement in bioavailability, Carum carvi + Zingiber officinale, Frac 1. (Cc): nutraceutical with Carum carvi Fraction No. 1 and Zingiber officinale; for % Enhancement in bioavailability, Carum carvi + piperine, Frac 1. (Cc): nutraceutical with Carum carvi Fraction No. 1 and piperine; for % Enhancement in bioavailability, Carum carvi (Cc) Extr.: nutraceutical with Carum carvi extract 30 mg/kg; for % Enhancement in bioavailability, Carum carvi + Zingiber officinale, Extr. (Cc): nutraceutical with Carum carvi extract and Zingiber officinale; for % Enhancement in bioavailability, Carum carvi + piperine, Extr. (Cc): nutraceutical with Carum carvi extract and piperine
Protocol: Bioenhancers of Zingiber officinale, mean 50% alcoholic extract of fresh ginger. The doses remain unchanged whether the bioenhancers are used alone or in combination.
The amount of bioenhancers used are given below: • i. from Carum carvi: extract 30 mg/kg body weight (rats); Fraction No. 1: 15 mg/kg body weight (rats) • ii. piperine 8 mg/kg body weight (rats) • iii. Zingiber officinale: 35 mg/kg body weight (rats) • The drug used was rifampicin (40 mg/kg). The drug alone or in combination with the bioenhancers was administered to rats as given below: • Group 1: control • Group 2: Rifampicin alone • Group 3: bioenhancer alone • Group 4: Rifampicin with Carum carvi bioenhancer
Blood from the control/treated animals at predetermined intervals (0-24 hours) (total 14 timings). Rifampicin was extracted from the blood (plasma) using dichloromethane. […] The mobile phase was phosphate buffer:acetonitrile in a ratio of 40:60, and a flow rate of 1.0 ml/min.

Molecule | % Enhancement in bioavailability, BE from Carum carvi | % Enhancement in bioavailability, Carum carvi + Zingiber officinale | % Enhancement in bioavailability, Carum carvi + Piperine | % Enhancement in bioavailability, BE from Zingiber officinale | % Enhancement in bioavailability, Piperine as BE | % Enhancement in bioavailability, Carum carvi (Cc) Frac 1. | % Enhancement in bioavailability, Carum carvi + Zingiber officinale, Frac 1. (Cc) | % Enhancement in bioavailability, Carum carvi + piperine, Frac 1. (Cc) | % Enhancement in bioavailability, Carum carvi (Cc) Extr. | % Enhancement in bioavailability, Carum carvi + Zingiber officinale, Extr. (Cc) | % Enhancement in bioavailability, Carum carvi + piperine, Extr. (Cc)
Nc1ccc(S(=O)(=O)c2ccc(N)cc2)cc1 [Dapsone] | 56% | 68% | 67% | 46% | 34% |  |  |  |  |  | 
NCCCC[C@H](N[C@@H](CCc1ccccc1)C(=O)O)C(=O)N1CCC[C@H]1C(=O)O [Lisinopril] | 79% | 90% | 95% | 76% | 85% |  |  |  |  |  | 
O=c1[nH]cc(F)c(=O)[nH]1 [5-Fluorouracil] | 90% | 100% | 110% | 110% | 87% |  |  |  |  |  | 
CN/C(=N/CCSCc1nc[nH]c1C)NC#N [Cimetidine] | 72% | 100% | 84% | 98% | nil |  |  |  |  |  | 
C=CC1=C(C(=O)O)N2C(=O)[C@@H](NC(=O)/C(=N\O)c3csc(N)n3)[C@H]2SC1 [Cefidinir] | 89% | 130% | 95% | 35% | 60% |  |  |  |  |  | 
Cc1cn([C@H]2C[C@H](N=[N+]=[N-])[C@@H](CO)O2)c(=O)[nH]c1=O [Zidovudine] | 92% | 87% | 95% | 105% | 140% |  |  |  |  |  | 
CCc1cc(C(N)=S)ccn1 [Ethionamide] | 68% | 70% | 65% | 56% | 45% |  |  |  |  |  | 
Vit B 12 |  |  |  | Nil | Nil | nil | Nil | Nil | Nil | Nil | Nil
[Ca+2] [Calcium] |  |  |  | nil | nil | Nil | Nil | Nil | nil | Nil | nil
CC(C)NCC(O)COc1cccc2ccccc12 (centres unmarked) [Propranolol] | 68% | 75% | 90% | 76% | 84% |  |  |  |  |  | 
Cn1c(=O)c2[nH]cnc2n(C)c1=O [Theophylline] | 70% | 89% | 79% | 76% | 65% |  |  |  |  |  | 
CC(=O)N1CCN(c2ccc(OCC3COC(Cn4ccnc4)(c4ccc(Cl)cc4Cl)O3)cc2)CC1 (centres unmarked) [Ketoconazole] | 55% | 96% | 100% | 125% | 105% |  |  |  |  |  | 
CC1(C)S[C@@H]2[C@H](NC(=O)[C@H](N)c3ccc(O)cc3)C(=O)N2[C@H]1C(=O)O [Amoxycillin] | 75% | 100% | 115% | 80% | 120% |  |  |  |  |  | 
[Zn] [Zinc] |  |  |  | nil | nil | Nil | Nil | Nil | nil | Nil | nil
COc1cccc2c1C(=O)c1c(O)c3c(c(O)c1C2=O)C[C@@](O)(C(=O)CO)C[C@@H]3O[C@H]1C[C@H](N)[C@H](O)[C@H](C)O1 [Dauxorubicin] | Nil | 69% | 70% | 72% | 68% |  |  |  |  |  | 
Vit E |  |  |  | Nil | Nil | Nil | Nil | Nil | Nil | Nil | Nil
CO/N=C(\C(=O)N[C@@H]1C(=O)N2C(C(=O)O)=C(CSc3nc(=O)c(O)nn3C)CS[C@H]12)c1csc(N)n1 [Cefetrioxone] | 72% | 75% | 78% | Nil | Nil |  |  |  |  |  | 
CS(=O)(=O)Nc1ccc([N+](=O)[O-])cc1Oc1ccccc1 [Nimesulide] | 100% | 145% | 140% | 144% | 132% |  |  |  |  |  | 
O=C(CCCN1CCC(O)(c2ccc(Cl)cc2)CC1)c1ccc(F)cc1 [Haloperidol] | 95% | 85% | 90% | Nil | nil |  |  |  |  |  | 
COc1c(C)c2c(c(O)c1C/C=C(\C)CCC(=O)OCCN1CCOCC1)C(=O)OC2 [Mycophenolate Mofeit] | Nil | nil | nil | Nil | nil |  |  |  |  |  | 
CC1=C(/C=C/C(C)=C/C=C/C(C)=C/C=C/C=C(C)/C=C/C=C(C)/C=C/C2=C(C)CCCC2(C)C)C(C)(C)CCC1 [B-carotene] |  |  |  | 35% | 29% | 55% | 72% | 59% | 47% | 63% | 45%
C[C@@H]1[C@H](O)[C@@H](C)/C=C/C=C/C=C/C=C/C=C/C=C/C=C/[C@H](O[C@@H]2O[C@H](C)[C@@H](O)[C@H](N)[C@@H]2O)C[C@@H]2O[C@](O)(C[C@@H](O)C[C@@H](O)[C@H](O)CC[C@@H](O)C[C@@H](O)CC(=O)O[C@H]1C)C[C@H](O)[C@H]2C(=O)O [Amphotericin B] | 78% | 80% | 90% | Nil | nil |  |  |  |  |  | 
CN(Cc1cc(Br)cc(Br)c1N)C1CCCCC1 [Bromhexine] | Nil | 71% | 70% | 67% | 67% |  |  |  |  |  | 
CC(C)(C)NCC(O)c1ccc(O)c(CO)c1 (centres unmarked) [Salbutamol] | 75% | 80% | 89% | 78% | 60% |  |  |  |  |  | 
Cc1ncc(CO)c(CO)c1O [Vit B 6] |  |  |  | Nil | Nil | Nil | Nil | Nil | nil | Nil | Nil
